Laboratory results published in US20250171495A1, “MUTLI-TARGETED SERINE PROTEASE INHIBITORS FOR TREATMENT OF CANCER AND VIRAL INFECTION” (Washington University, priority 2023, published 2025).
Numbered stars: 1 amine (or outer) side, 2 acyl side, 3 side chain; on linkers, the order of the positions; unused ones are H or OH. Square brackets hold non-standard residues; d marks the D form. Peptide text beside a SMILES is read from it. X1 = N=C(N)NCCC[C@H](N[*:1])C(=O)c1nc2ccc(C(=O)[*:2])cc2s1

Tested on: VSV-SARS-CoV-2
Experiment: microbe, parasite or virus in culture
Conditions: Vesicular stomatitis virus, Calu-3, in Homo sapiens, read-out: VSV SARS CoV-2 Cell Entry EC50 (nM)

Structure (SMILES) | EC50
CCC(C)[C@H](NC(C)=O)C(=O)N[C@@H](CCC(=O)O)C(=O)N[C@@H](Cc1ccccc1)C(=O)N[C@@H](CCCNC(=N)N)C(=O)c1nc2ccccc2s1 (stereo partly drawn) [MM4037-2, (S)-4-[(2S)-2-acetylamino-3-methylvalerylamino]-4-[N-(S)-1-[N-(S)-1-[(1,3-benzothiazol-2-yl)carbonyl]-4-guanidinobutylcarbamoyl]-2-phenylethylcarbamoyl]butyric acid] | 23.9 nM
CC(=O)N[C@@H](CO)C(=O)N[C@@H](CCCCN)C(=O)N[C@@H](CC(C)C)C(=O)N[C@@H](CCCNC(=N)N)C(=O)c1nc2ccc(C(=O)N[C@H](C(N)=O)C(C)C)cc2s1 [ZFH7116, N-[(S)-1-carbamoyl-2-methylpropyl]-2-[(S)-2-[(S)-2-[(S)-1-[(S)-2-acetylamino-3-hydroxypropionylamino]-5-aminopentylcarbonyl-amino]-4-methylvalerylamino]-5-guanidinovaleryl]-1,3-benzothiazole-6-carboxamide] (Ac-SKL[X1]V-NH2) | 489 nM
CC(=O)N[C@@H](Cc1c[nH]c2ccccc12)C(=O)N[C@@H](Cc1ccccc1)C(=O)N[C@@H](CCCNC(=N)N)C(=O)c1nc2ccccc2s1 [PK-1-102A1, N-[(S)-1-[(1,3-benzothiazol-2-yl)carbonyl]-4-guanidinobutyl](S)-2-[(S)-2-acetylamino-3-(3-indolyl)propionylamino]-3-phenylpropionamide] | 1380 nM
CC(=O)N[C@H](Cc1c[nH]c2ccccc12)C(=O)N[C@@H](Cc1ccccc1)C(=O)N[C@@H](CCCNC(=N)N)C(=O)c1nc2ccc(C(=O)O)cc2s1 [PK-1-93, 2-[(S)-2-[(S)-2-[(R)-2-acetylamino-3-(3-indolyl)propionylamino]-3-phenylpropionylamino]-5-guanidinovaleryl]-1,3-benzothiazole-6-carboxylic acid] | 141 nM
CCC(C)[C@H](NC(C)=O)C(=O)N[C@@H](CCC(N)=O)C(=O)N[C@@H](CO)C(=O)N[C@@H](CCCNC(=N)N)C(=O)c1nc2ccccc2s1 (stereo partly drawn) [MM3177, N-[(S)-2-hydroxy-1-[N-(S)-1-[(1,3-benzothiazol-2-yl)carbonyl]-4-guanidinobutylcarbamoyl]ethyl](S)-2-[(2S)-2-acetylamino-3-methylvalerylamino]glutaramide] | 36 nM
CC(=O)N[C@@H](Cc1c[nH]c2ccccc12)C(=O)N[C@@H](CC(C)C)C(=O)N[C@@H](CCCNC(=N)N)C(=O)c1nc2ccc(C(=O)O)cc2s1 [PK-1-105, 2-[(S)-2-[(S)-2-[(S)-2-acetylamino-3-(3-indolyl)propionylamino]-4-methylvalerylamino]-5-guanidinovaleryl]-1,3-benzothiazole-6-carboxylic acid] | 721 nM
CCC(C)[C@H](NC(C)=O)C(=O)N[C@H](Cc1cc2ccccc2[nH]1)C(=O)N[C@@H](Cc1ccccc1)C(=O)N[C@@H](CCCNC(=N)N)C(=O)c1nc2ccccc2s1 (stereo partly drawn) [MM4038, N-[(R)-2-(2-indolyl)-1-[N-(S)-1-[N-(S)-1-[(1,3-benzothiazol-2-yl)carbonyl]-4-guanidinobutylcarbamoyl]-2-phenylethylcarbamoy1]ethyl](2S)-2-acetylamino-3-methylvaleramide] | 226 nM
CCC(C)[C@H](NC(C)=O)C(=O)N[C@@H](CCC(N)=O)C(=O)N[C@@H](Cc1ccccc1)C(=O)N[C@@H](CCCNC(=N)N)C(=O)c1nc2ccccc2s1 (stereo partly drawn) [MM3116, N-[(S)-1-[N-(S)-1-[(1,3-benzothiazol-2-yl)carbonyl]-4-guanidinobutylcarbamoyl]-2-phenylethyl](S)-2-[(2S)-2-acetylamino-3-methylvalerylamino]glutaramide] | 3.6 nM
CC(=O)N[C@@H](CC(C)C)C(=O)N[C@@H](CCC(N)=O)C(=O)N[C@@H](Cc1ccccc1)C(=O)N[C@@H](CCCNC(=N)N)C(=O)c1nc2ccccc2s1 [MM3131, N-[(S)-1-[N-(S)-1-[(1,3-benzothiazol-2-yl)carbonyl]-4-guanidinobutylcarbamoyl]-2-phenylethyl](S)-2-[(S)-2-acetylamino-4-methylvalerylamino]glutaramide] | 10.7 nM
CC(=O)N[C@H](Cc1c[nH]c2ccccc12)C(=O)N[C@@H](Cc1ccccc1)C(=O)N[C@@H](CCCNC(=N)N)C(=O)c1nc2ccccc2s1 [PK-1-89A1, N-[(S)-1-[(1,3-benzothiazol-2-yl)carbonyl]-4-guanidinobutyl](S)-2-[(R)-2-acetylamino-3-(3-indolyl)propionylamino]-3-phenylpropionamide] | 140 nM
CC(=O)N1CCC[C@H]1C(=O)N[C@@H](CCC(N)=O)C(=O)N[C@@H](Cc1ccccc1)C(=O)N[C@@H](CCCNC(=N)N)C(=O)c1nc2ccccc2s1 [MM3123, N-[(S)-1-[N-(S)-1-[(1,3-benzothiazol-2-yl)carbonyl]-4-guanidinobutylcarbamoyl]-2-phenylethyl](S)-2-[(S)-1-acetyl-2-pyrrolidinylcarbonylamino] glutaramide] | 0.86 nM
CCC(C)[C@H](NC(C)=O)C(=O)N[C@@H](CCC(N)=O)C(=O)N[C@@H](Cc1c[nH]c2ccccc12)C(=O)N[C@@H](CCCNC(=N)N)C(=O)c1nc2ccccc2s1 (stereo partly drawn) [MM3187, N-[(S)-2-(3-indolyl)-1-[N-(S)-1-[(1,3-benzothiazol-2-yl)carbonyl]-4-guanidinobutylcarbamoyl]ethyl](S)-2-[(2S)-2-acetylamino-3-methylvalerylamino]glutaramide] | 22 nM
N=C(N)NCCC[C@H](NC(=O)[C@H](Cc1ccccc1)NC(=O)[C@H](N)Cc1c[nH]c2ccccc12)C(=O)c1nc2ccc(C(=O)O)cc2s1 [PK-1-45A1, 2-[(S)-2-[(S)-2-[(R)-2-amino-3-(3-indolyl)propionylamino]-3-phenylpropionylamino]-5-guanidinovaleryl]-1,3-benzothiazole-6-carboxylic acid] | 105 nM
CC(=O)N1CCC[C@H]1C(=O)N[C@@H](CO)C(=O)N[C@@H](CCCCN)C(=O)N[C@@H](CCCNC(=N)N)C(=O)c1nc2ccccc2s1 [MM3194A, N-[(S)-2-hydroxy-1-[N-(S)-5-amino-1-[N-(S)-1-[(1,3-benzothiazol-2-yl)carbonyl]-4-guanidinobutylcarbamoyl]pentylcarbamoy1]ethyl]-(S)-1-acetyl-2-pyrrolidinecarboxamide] | 613 nM
CC(=O)N[C@@H](Cc1ccccc1)C(=O)N[C@@H](CC(C)C)C(=O)N[C@@H](Cc1ccccc1)C(=O)N[C@@H](CCCNC(=N)N)C(=O)c1nc2ccccc2s1 [ZFH7063, N-[(S)-1-[N-(S)-1-[(1,3-benzothiazol-2-yl)carbonyl]-4-guanidinobutylcarbamoyl]-2-phenylethyl](S)-2-[(S)-2-acetylamino-3-phenylpropionylamino]-4-methylvaleramide] | 101 nM
CCC(C)[C@H](NC(C)=O)C(=O)N[C@@H](CCC(N)=O)C(=O)N[C@H](C(=O)N[C@@H](CCCNC(=N)N)C(=O)c1nc2ccccc2s1)C(C)O (stereo partly drawn) [MM3186, N-[(1S)-2-hydroxy-1-[N-(S)-1-[(1,3-benzothiazol-2-yl)carbonyl]-4-guanidinobutylcarbamoyl]propyl](S)-2-[(2S)-2-acetylamino-3-methylvalerylamino]glutaramide] | 18.5 nM
CC(=O)N[C@@H](CCCCN)C(=O)N[C@@H](CCC(N)=O)C(=O)N[C@@H](Cc1ccccc1)C(=O)N[C@@H](CCCNC(=N)N)C(=O)c1nccs1 [ZFH6101, N-[(S)-1-[N-(S)-4-guanidino-1-[(1,3-thiazol-2-yl)carbonyl]butylcarbamoyl]-2-phenylethyl](S)-2-[(S)-1-acetylamino-5-aminopentylcarbonylamino] glutaramide] | 262 nM
CCC(C)[C@H](NC(C)=O)C(=O)N[C@@H](CCSC)C(=O)N[C@@H](Cc1ccccc1)C(=O)N[C@H](CCCNC(=N)N)C(=O)c1nc2ccccc2s1 (stereo partly drawn) [MM4027-1, N-[(S)-3-(methylthio)-1-[N-(S)-1-[N-(R)-1-[(1,3-benzothiazol-2-yl)carbonyl]-4-guanidinobutylcarbamoyl]-2-phenylethylcarbamoyl]propyl](2S)-2-acetylamino-3-methylvaleramide] | 92.3 nM
CC(=O)N[C@@H](CO)C(=O)N[C@@H](CCC(N)=O)C(=O)N[C@@H](CC(C)C)C(=O)N[C@@H](CCCNC(=N)N)C(=O)c1nccs1 [ZFH6138, N-[(S)-3-methyl-1-[N-(S)-4-guanidino-1-[(1,3-thiazol-2-yl)carbonyl]butylcarbamoyl]butyl](S)-2-[(S)-2-acetylamino-3-hydroxypropionylamino]glutaramide] | 1320 nM
N=C(N)NCCC[C@H](NC(=O)[C@H](Cc1ccccc1)NC(=O)[C@H](N)Cc1c[nH]c2ccccc12)C(=O)c1nc2ccccc2s1 [PK-1-18A1, N-[(S)-1-[(1,3-benzothiazol-2-yl)carbonyl]-4-guanidinobutyl](S)-2-[(R)-2-amino-3-(3-indolyl)propionylamino]-3-phenylpropionamide] | 356 nM
CCC(C)[C@H](NC(C)=O)C(=O)N[C@H](C(=O)N[C@@H](Cc1ccccc1)C(=O)N[C@@H](CCCNC(=N)N)C(=O)c1nc2ccccc2s1)C(C)O (stereo partly drawn) [MM4028-2, N-[(1S)-2-hydroxy-1-[N-(S)-1-[N-(S)-1-[(1,3-benzothiazol-2-yl)carbonyl]-4-guanidinobutylcarbamoyl]-2-phenylethylcarbamoyl]propyl](2S)-2-acetylamino-3-methylvaleramide] | 103 nM
CC(=O)N[C@H]1Cc2ccc(cc2)Oc2cccc(c2)C[C@@H](C(=O)N[C@@H](CCCNC(=N)N)C(=O)c2nc3ccccc3s2)NC(=O)[C@H](CC(C)C)NC1=O [VD5064B, N-[(S)-1-[(1,3-benzothiazol-2-yl)carbonyl]-4-guanidinobutyl]-(9S,12S,15S)-15-acetylamino-12-isobutyl-11,14-dioxo-2-oxa-10,13-diazatricyclo[15.2.2.1^3,^7]docosa-1(19),3,5,7(22),17,20-hexaene-9-carboxamide] | 8370 nM
CC(=O)N[C@@H](CC(C)C)C(=O)N[C@@H](CC(C)C)C(=O)N[C@@H](CCCNC(=N)N)C(=O)c1nccs1 [ZFH6201-1, N-[(S)-4-guanidino-1-[(1,3-thiazol-2-yl)carbonyl]butyl](S)-2-[(S)-2-acetylamino-4-methylvalerylamino]-4-methylvaleramide] | 1840 nM
